In patent publication US10677783B2, “Method for evaluating effect of cytokine on metabolic activity of cytochrome P450, and drug screening method” (Corning Incorporated, priority 2012, dated 2020):

Tested on: CYP3A4
Experiment: CYP3A4 mRNA expression by RT-qPCR in spheroid-shaped FLC-4 cells (example, MICRO-SPACE)
Type: cell-based, human
Excerpt: A plurality of culture chambers 10a are formed on the bottom culture surface of each well 21a. Each culture chamber 10a includes culture rooms 11a each having the equivalent diameter D of 200 μm and the height H of 100 μm. The width W of each wall 12a is 10 μm.
As cells to be cultured, FLC-4 cells which are established hepatocyte cell lines […] were used.
As a culture medium, a DMEM/F 12 culture medium containing 10% fetal bovine serum (FBS) was used. A cell suspension was adjusted at a cell seeding density of 16×10^5 cells/mL.
The cells were cultured in a CO2 incubator for 10 to 11 days. The culture medium was replaced once every three days.
The total amount of old culture medium was removed from each well by using a pipette (culture medium removing process).
A test solution or a control solution was added to each well (test solution addition process).
The cells were incubated in a CO2 incubator for eight hours, 24 hours, or 48 hours at 37° C. (contact process).
The test solution was obtained in such a manner that the cytokine was dissolved at each concentration shown in Table 1 in a DMEM/F12 solution (DMEM/E12 FBS(−)) containing no serum.
In an RNA extraction, one sample corresponding to two wells 21a of the culture plate 1a was extracted according to the protocol of NucleoSpin® RNAII (Macherey-Nagel). Only the portion to be subjected to Dnase treatment was modified, and DNaseI recombinant, RNase-free (Roche, Branchburg, N.J., USA) was used. The total RNA underwent reverse transcription reaction using High-Capacity cDNA Reverse Transcription Kits (Applied. Biosystems, Foster City, Calif., USA) and an attached random hexamer primer, and the first strand cDNA was synthesized.
The analysis was made using a total amount of 20 μL of reaction liquid containing 9.6 μL of EagleTaq Master Mix with ROX (Roche, Branchburg, N.J., USA), 0.96 μL of 20× Assays-on-Demand™ Gene Expression Assay Mix (Applied Biosystems), 7.1 μL of sterilized MiliQ water, and 1.8 μL of cDNA diluted by a factor of 5, and the reaction liquid was measured by Real-time PCR.

Row | Compound | value of the metabolic function of CYP3A4 (mRNA expression level), third test solution versus second test solution (10 ng/mL EGF + 5 μM Gefitinib vs 10 ng/mL EGF alone, FIG. 20) | determination of the drug's effect on the drug-metabolizing function of the cytochrome P450 (10 ng/mL EGF + 5 μM Gefitinib, first to third test solutions compared) | gene expression level of CYP3A4 versus contact time (spheroid-shaped established hepatocyte cell line, contact for 0, four and eight hours, FIG. 9)
1 | COc1cc2ncnc(Nc3ccc(F)c(Cl)c3)c2cc1OCCCN1CCOCC1 [Gefitinib, reference compound] | three times higher | restores the drug-metabolizing function of the cytochrome P450 | 
2 | interleukin-1β |  |  | decreases over time
